Measured values taken from ChEMBL document CHEMBL3045869, “Efficacy of fungicides with various modes of action in controlling the early stages of an Erysiphe necator-induced epidemic” (2010).
Calls of active or inactive are those of the source. The rule behind the calls is not given here.

Legend:
[1] = tested on: Erysiphe necator; assay: Antifungal activity against Erysiphe necator biotype B assessed as disease severity at 0.625 g a.i./l applied 4 days post-inoculation measured immediately during cycle 1 by leaf-disk method relative to untreated-control; assay type: functional
[2] = tested on: Erysiphe necator; assay: Antifungal activity against Erysiphe necator biotype B assessed as number of spores at 0.625 g a.i./l applied 4 days post-inoculation measured after 14 days during cycle 1 by leaf-disk method (reference value: 35.9 x 10^3 cm'-2); assay type: functional
[3] = tested on: Erysiphe necator; assay: Antifungal activity against Erysiphe necator biotype B assessed as number of spores at 0.625 g a.i./l applied 13 days post-inoculation measured after 14 days during cycle 2 by leaf-disk method (reference value: 47.6 x 10^3 cm'-2); assay type: functional
[4] = tested on: Erysiphe necator; assay: Antifungal activity against Erysiphe necator biotype B assessed as AUDPC at 0.625 g a.i./l applied 4 days post-inoculation measured after 14 days during cycle 2 by leaf-disk method (reference value: 844); assay type: functional
[5] = tested on: Erysiphe necator; assay: Antifungal activity against Erysiphe necator biotype B assessed as AUDPC at 0.625 g a.i./l applied 4 days post-inoculation measured after 14 days during cycle 1 by leaf-disk method (reference value: 695.6); assay type: functional
[6] = tested on: Erysiphe necator; assay: Antifungal activity against Erysiphe necator biotype B assessed as number of spores at 0.625 g a.i./l applied 4 days post-inoculation measured after 14 days during cycle 2 by leaf-disk method (reference value: 44.4 x 10^3 cm'-2); assay type: functional
[7] = tested on: Erysiphe necator; assay: Antifungal activity against Erysiphe necator biotype B assessed as number of spores at 0.625 g a.i./l applied 48 hr post-inoculation measured after 14 days by leaf-disk method (reference value: 43.5 x 10^3 cm'-2); assay type: functional
[8] = tested on: Erysiphe necator; assay: Antifungal activity against Erysiphe necator biotype B assessed as disease severity at 0.625 g a.i./l applied 48 hr post-inoculation measured after 7 days by leaf-disk method relative to untreated-control; assay type: functional
[9] = tested on: Erysiphe necator; assay: Antifungal activity against Erysiphe necator biotype B assessed as AUDPC at 0.625 g a.i./l applied 48 hr post-inoculation measured after 14 days by leaf-disk method (reference value: 394); assay type: functional
[10] = tested on: Erysiphe necator; assay: Antifungal activity against Erysiphe necator biotype B assessed as disease severity at 0.625 g a.i./l applied 4 days post-inoculation measured after 14 days during cycle 1 by leaf-disk method relative to untreated-control; assay type: functional
[11] = tested on: Erysiphe necator; assay: Antifungal activity against Erysiphe necator biotype B assessed as disease severity at 0.625 g a.i./l applied 48 hr post-inoculation measured after 14 days by leaf-disk method relative to untreated-control; assay type: functional
[12] = tested on: Erysiphe necator; assay: Antifungal activity against Erysiphe necator biotype B assessed as AUDPC at 0.625 g a.i./l applied 13 days post-inoculation measured after 14 days during cycle 2 by leaf-disk method (reference value: 654); assay type: functional
[13] = tested on: Erysiphe necator; assay: Antifungal activity against Erysiphe necator biotype B assessed as number of spores at 0.5 g a.i./l applied 13 days post-inoculation measured after 14 days during cycle 2 by leaf-disk method (reference value: 47.6 x 10^3 cm'-2); assay type: functional
[14] = tested on: Erysiphe necator; assay: Antifungal activity against Erysiphe necator biotype B assessed as reduction in mycelial growth at 0.5 g a.i./l applied 4 days post-inoculation measured after 11 days during cycle 2 by leaf-disk method relative to untreated-control; assay type: functional, organism-based
[15] = tested on: Erysiphe necator; assay: Antifungal activity against Erysiphe necator biotype B assessed as disease severity at 0.5 g a.i./l applied 13 days post-inoculation measured after 14 days during cycle 2 by leaf-disk method relative to untreated-control; assay type: functional
[16] = tested on: Erysiphe necator; assay: Antifungal activity against Erysiphe necator biotype B assessed as reduction in disease severity at 0.5 g a.i./l applied 48 hr post-inoculation measured after 14 days by leaf-disk method relative to untreated-control; assay type: functional, organism-based
[17] = tested on: Erysiphe necator; assay: Antifungal activity against Erysiphe necator biotype B assessed as disease severity at 0.5 g a.i./l applied 13 days post-inoculation measured after 6 days during cycle 2 by leaf-disk method relative to untreated-control; assay type: functional
[18] = tested on: Erysiphe necator; assay: Antifungal activity against Erysiphe necator biotype B assessed as disease severity at 0.5 g a.i./l applied 4 days post-inoculation measured after 14 days during cycle 1 by leaf-disk method relative to untreated-control; assay type: functional
[19] = tested on: Erysiphe necator; assay: Antifungal activity against Erysiphe necator biotype B assessed as number of spores at 0.5 g a.i./l applied 4 days post-inoculation measured after 14 days during cycle 2 by leaf-disk method (reference value: 44.4 x 10^3 cm'-2); assay type: functional
[20] = tested on: Erysiphe necator; assay: Antifungal activity against Erysiphe necator biotype B assessed as reduction in AUDPC at 0.5 g a.i./l applied 4 days post-inoculation measured after 11 days during cycle 2 by leaf-disk method relative to untreated-control; assay type: functional, organism-based
[21] = tested on: Erysiphe necator; assay: Antifungal activity against Erysiphe necator biotype B assessed as AUDPC at 0.5 g a.i./l applied 4 days post-inoculation measured after 14 days during cycle 1 by leaf-disk method (reference value: 695.6); assay type: functional
[22] = tested on: Erysiphe necator; assay: Antifungal activity against Erysiphe necator biotype B assessed as AUDPC at 0.5 g a.i./l applied 4 days post-inoculation measured after 14 days during cycle 2 by leaf-disk method (reference value: 844); assay type: functional
[23] = tested on: Erysiphe necator; assay: Antifungal activity against Erysiphe necator biotype B assessed as AUDPC at 0.5 g a.i./l applied 13 days post-inoculation measured after 14 days during cycle 2 by leaf-disk method (reference value: 654); assay type: functional
[24] = tested on: Erysiphe necator; assay: Antifungal activity against Erysiphe necator biotype B assessed as number of spores at 0.5 g a.i./l applied 48 hr post-inoculation measured after 14 days by leaf-disk method (reference value: 43.5 x 10^3 cm'-2); assay type: functional
[25] = tested on: Erysiphe necator; assay: Antifungal activity against Erysiphe necator biotype B assessed as number of spores at 0.5 g a.i./l applied 4 days post-inoculation measured after 14 days during cycle 1 by leaf-disk method (reference value: 35.9 x 10^3 cm'-2); assay type: functional
[26] = tested on: Erysiphe necator; assay: Antifungal activity against Erysiphe necator biotype B assessed as reduction in sporulation at 0.5 g a.i./l applied 4 days post-inoculation measured after 11 days during cycle 2 by leaf-disk method relative to untreated-control; assay type: functional, organism-based
[27] = tested on: Erysiphe necator; assay: Antifungal activity against Erysiphe necator biotype B assessed as reduction in disease severity at 0.5 g a.i./l applied 4 days post-inoculation measured after 11 days during cycle 2 by leaf-disk method relative to untreated-control; assay type: functional, organism-based
[28] = tested on: Erysiphe necator; assay: Antifungal activity against Erysiphe necator biotype B assessed as disease severity at 0.5 g a.i./l applied 4 days post-inoculation measured immediately during cycle 1 by leaf-disk method relative to untreated-control; assay type: functional
[29] = tested on: Erysiphe necator; assay: Antifungal activity against Erysiphe necator biotype B assessed as AUDPC at 0.5 g a.i./l applied 48 hr post-inoculation measured after 14 days by leaf-disk method (reference value: 394); assay type: functional
[30] = tested on: Erysiphe necator; assay: Antifungal activity against Erysiphe necator biotype B assessed as reduction in mycelial growth at 1 g a.i./l applied 13 days post-inoculation measured after 14 days during cycle 2 by leaf-disk method relative to untreated-control; assay type: functional, organism-based
[31] = tested on: Erysiphe necator; assay: Antifungal activity against Erysiphe necator biotype B assessed as inhibition of disease severity at 1 g a.i./l applied 48 hr post-inoculation measured after 14 days by leaf-disk method relative to control; assay type: functional; set-up: scale not given: the % may be the effect or the level left
[32] = tested on: Erysiphe necator; assay: Antifungal activity against Erysiphe necator biotype B assessed as disease severity at 1 g a.i./l applied 4 days post-inoculation measured on day 13 during cycle 1 by leaf-disk method relative to untreated-control; assay type: functional
[33] = tested on: Erysiphe necator; assay: Antifungal activity against Erysiphe necator biotype B assessed as AUDPC at 1 g a.i./l applied 4 days post-inoculation measured after 14 days during cycle 1 by leaf-disk method (reference value: 695.6); assay type: functional
[34] = tested on: Erysiphe necator; assay: Antifungal activity against Erysiphe necator biotype B assessed as number of spores at 1 g a.i./l applied 4 days post-inoculation measured after 14 days during cycle 1 by leaf-disk method (reference value: 35.9 x 10^3 cm'-2); assay type: functional
[35] = tested on: Erysiphe necator; assay: Antifungal activity against Erysiphe necator biotype B assessed as AUDPC at 1 g a.i./l applied 48 hr post-inoculation measured after 14 days by leaf-disk method (reference value: 394); assay type: functional
[36] = tested on: Erysiphe necator; assay: Antifungal activity against Erysiphe necator biotype B assessed as disease severity at 1 g a.i./l applied 13 days post-inoculation measured after 6 days during cycle 2 by leaf-disk method relative to untreated-control; assay type: functional
[37] = tested on: Erysiphe necator; assay: Antifungal activity against Erysiphe necator biotype B assessed as AUDPC at 1 g a.i./l applied 4 days post-inoculation measured after 14 days during cycle 2 by leaf-disk method (reference value: 844); assay type: functional
[38] = tested on: Erysiphe necator; assay: Antifungal activity against Erysiphe necator biotype B assessed as AUDPC at 1 g a.i./l applied 13 days post-inoculation measured after 14 days during cycle 2 by leaf-disk method (reference value: 654); assay type: functional
[39] = tested on: Erysiphe necator; assay: Antifungal activity against Erysiphe necator biotype B assessed as disease severity at 1 g a.i./l applied 4 days post-inoculation measured immediately during cycle 1 by leaf-disk method relative to untreated-control; assay type: functional
[40] = tested on: Erysiphe necator; assay: Antifungal activity against Erysiphe necator biotype B assessed as inhibition of mycelial growth at 1 g a.i./l applied 48 hr post-inoculation measured after 14 days by leaf-disk method; assay type: functional, organism-based
[41] = tested on: Erysiphe necator; assay: Antifungal activity against Erysiphe necator biotype B assessed as inhibition of mycelial growth at 1 g a.i./l applied 4 days post-inoculation measured on after 14 days during cycle 2 by leaf-disk method relative to untreated-control; assay type: functional, organism-based
[42] = tested on: Erysiphe necator; assay: Antifungal activity against Erysiphe necator biotype B assessed as disease severity at 1 g a.i./l applied 13 days post-inoculation measured after 14 days during cycle 2 by leaf-disk method relative to untreated-control; assay type: functional
[43] = tested on: Erysiphe necator; assay: Antifungal activity against Erysiphe necator biotype B assessed as number of spores at 1 g a.i./l applied 4 days post-inoculation measured after 14 days during cycle 2 by leaf-disk method (reference value: 44.4 x 10^3 cm'-2); assay type: functional
[44] = tested on: Erysiphe necator; assay: Antifungal activity against Erysiphe necator biotype B assessed as number of spores at 1 g a.i./l applied 13 days post-inoculation measured after 14 days during cycle 2 by leaf-disk method (reference value: 47.6 x 10^3 cm'-2); assay type: functional
[45] = tested on: Erysiphe necator; assay: Antifungal activity against Erysiphe necator biotype B assessed as number of spores at 1 g a.i./l applied 48 hr post-inoculation measured after 14 days by leaf-disk method (reference value: 43.5 x 10^3 cm'-2); assay type: functional

Structure (SMILES): CO/N=C(\C(=O)OC)c1ccccc1CO/N=C(\C)c1cccc(C(F)(F)F)c1
- Activity [1]: 24%
- Activity [2]: 0.2 ×10³ /cm2
- Activity [3]: 1 ×10³ /cm2
- AUDPC [4]: 0
- AUDPC [5]: 459
- Activity [6]: 0.06 ×10³ /cm2
- Activity [7]: 2.1 ×10³ /cm2
- Activity [8]: 3%
- AUDPC [9]: 86
- Activity [10]: 60%
- Activity [11]: 31.8%
- AUDPC [12]: 6

Structure (SMILES): Fc1ccc(Oc2ccnc3cc(Cl)cc(Cl)c23)cc1 [QUINOXYFEN]
- Activity [13]: 23.2 ×10³ /cm2
- Activity [14]: inactive
- Activity [15]: 89%
- Activity [16]: Active
- Activity [17]: 5%
- Activity [18]: 60%
- Activity [19]: 36.9 ×10³ /cm2
- Activity [20]: Active
- AUDPC [21]: 442
- AUDPC [22]: 6373
- AUDPC [23]: 361
- Activity [24]: 27.3 ×10³ /cm2
- Activity [25]: 10.7 ×10³ /cm2
- Activity [26]: inactive
- Activity [27]: inactive
- Activity [28]: 24%
- AUDPC [29]: 354

Structure (SMILES): CC(C)(C)C(O)(CCc1ccc(Cl)cc1)Cn1cncn1 (stereo not given) [TEBUCONAZOLE]
- Activity [30]: inactive
- Activity [31]: 0%
- Activity [32]: 0%
- AUDPC [33]: 56.6
- Activity [34]: 0.2 ×10³ /cm2
- AUDPC [35]: 0
- Activity [36]: 50%
- AUDPC [37]: 0
- AUDPC [38]: 612
- Activity [39]: 25%
- inhibition [40]: Active
- inhibition [41]: Active
- Activity [42]: 95%
- Activity [43]: 0.02 ×10³ /cm2
- Activity [44]: 30.4 ×10³ /cm2
- Activity [45]: 0.8 ×10³ /cm2
